Laboratory results reported in PMC7797697 (Theranostics, 2021).

Columns and labels:
[1] = tested on: Primary breast tumor cells; assay: CCK8 assay IC50; assay type: cell-based, human; conditions: Homo sapiens, breast cancer, 72 h
Text: (§1) HeLa, MCF-7 and MDA-MB-231 cell lines were purchased from the American Type Culture Collection. MCF-10A, T-47D, PANC-1, A549, HCT-15, Caco-2, SMMC-7721, SH-SY5Y, HUVEC and PC-3 cell lines were obtained from the Chinese Academy of Medical Sciences. MEF was isolated from pregnant mice at 14‒16 days of pregnancy. Primary breast cancer cells were isolated from breast cancer patients. All media including Dulbecco Modified Eagle Medium (DMEM), RPMI 1640 Medium and DMEM/Nutrient Mixture F-12 were supplemented with 10% fetal bovine serum (FBS), 100 units/mL penicillin, and […] streptomycin (Gibco, Waltham, MA, USA). Cells were cultured in a humidified incubator equilibrated with 5% CO2 at 37 °C. Cells were treated for 24-72 h in adherent conditions with compounds from an epigenetic small molecule inhibitor library (L1200, Topscience, Shanghai, China).
(§2) Cell viability was then detected using a CCK8 assay (MedChemExpress, USA) according to the manufacturer's instructions.
(§3) Statistical analyses of all data were performed using GraphPad Prism (version 8.0, Graph Pad Software Inc., San Diego, CA, USA). All the data were analyzed by Student's t-test or one-way ANOVA. The Z-Score was chosen to evaluate the results and experimental deviation. Quantitative data are presented as the mean ± SD. […] IC50 was calculated using a four-parameter fit with variable slope in GraphPad Prism.

[2] = tested on: MDA-MB-231 xenografts; assay: MDA-MB-231 xenograft anti-tumor activity; assay type: in vivo, nude mice; conditions: i.v., 50 mg/kg
Procedure: MDA-MB-231 (5 × 10^6 cells) were inoculated into the left abdominal mammary fat pad of 6-week-old female nude mice, and tumor growth was monitored. […] After four weeks of treatment, all mice were sacrificed according to ethical guidelines. Tumors were excised and analyzed. Tumor volume was measured using a Vernier caliper and calculated according to the following formula: π/6 × length × width^2. All animal handling and procedures were approved by the Capital Medical University Institutional Animal Care. Tumor and adjacent tissues were rapidly fixed in 4% paraformaldehyde (Sigma-Aldrich) for at least 24 h and embedded in paraffin for microscopic examination. From the prepared paraffin blocks, 5-μm thick sections were cut and stained with hematoxylin and eosin (H&E) for light microscopic observation. Sections were processed as per standard protocols using 3,3'-diaminobenzidine (DAB) staining. All human and mouse tissues were collected according to protocols approved by the Ethics Committee of Capital Medical University, and informed consent was obtained from all patients.

[3] = tested on: MEF; assay: CCK8 assay IC50; assay type: cell-based, mouse; conditions: Mus musculus, normal cells, 72 h
Text: as §1, §2, §3

[4] = tested on: Gαq, PLCβ3, PMCA1 and PMCA4b in MDA-MB-231 cells; assay: Expression of calcium influx and efflux markers (Western blot, RT-qPCR); assay type: cell-based, human
Procedure: (§4) Reverse transcription was performed using the RevertAid First Strand cDNA Synthesis Kit ([…]) according to the manufacturer's instructions. The primers for the detection of target mRNA are shown in Table S2. β-actin was used as an internal reference. The relative expression of target genes was calculated by the 2^-ΔΔCt method.

[5] = tested on: breast cancer cells; assay: Transwell cell invasion assay; assay type: cell-based, human; conditions: matrigel transwell, P < 0.05
Procedure: Transwell chamber filters (BD) were coated with Matrigel diluted (1:10) in serum-free medium. […] After treatment, cells were digested and suspended in serum-free media. Cells (8,000 cells per well) were seeded into the upper chamber of the transwell chambers, and the chambers were transferred into 24-well plates containing 500 μl culture medium per well. After 20 h of incubation, cells in the upper chamber were fixed with 4% formaldehyde, washed with PBS, and stained with crystal violet for half an hour. Images of invasive cells were captured using a light microscope.

[6] = tested on: MDA-MB-231 cells; assay: High-content epigenetic inhibitor screen, quantification of living cells; assay type: cell-based, human; conditions: 72 h
Text: as §1
Statistical analyses of all data were performed using GraphPad Prism (version 8.0, Graph Pad Software Inc., San Diego, CA, USA). All the data were analyzed by Student's t-test or one-way ANOVA. The Z-Score was chosen to evaluate the results and experimental deviation. Quantitative data are presented as the mean ± SD. The asterisk (*) denotes statistically significant difference (P < 0.05). IC50 was calculated using a four-parameter fit with variable slope in GraphPad Prism.
To identify potential anti-tumor inhibitors, we screened an epigenetic small molecule inhibitor library for anti-tumor activity in breast cancer cells. […] The selection strategy mainly comprised three stages, in which different concentrations (high to low) of inhibitors screened with a high-content analysis instrument were identified using cancer cell lines in a 96-well plate format (Figure 1A). For the first step, we treated cells with a high concentration of compounds to exclude compounds ineffective in killing cancer cells. MDA-MB-231 cells, a human breast cancer cell line, were treated with 167 epigenetic compounds (30 μM each) for 48 h, and then analyzed by high-content analysis, where changes in cell morphology relative to the control (dimethyl sulfoxide, DMSO) would indicate modulation of cancer cells by compound treatment. […] At the second step, we treated the cells with the 60 compounds at a median concentration (3 μM) for 72 h to screen for inhibitors that can kill cancer cells with high efficiency.

[7] = tested on: primary breast cancer cells; assay: Intracellular calcium measurement (Fluo-4-AM); assay type: cell-based, human; conditions: thrombin stimulation
Procedure: After treatment, the cells were digested and seeded in 96-well black plates (Corning Costar, Cambridge, MA, USA) and cultured for 20 h. For measurement of [Ca^2+]i, the cells were labeled with Fluo-4-AM in serum-free medium for half an hour at room temperature. After washing with Dulbecco's Phosphate Buffered Saline (D-PBS), cells were overlaid in Hank's balanced salt solution (5.4 mM KCl, 1 mM MgCl2, 20 mM hydroxyethyl piperazineethanesulfonic acid (HEPES), 120 mM NaCl, 10 mM glucose, 0.2 mM Ethylenebis(oxyethylenenitrilo)tetraacetic acid (EGTA)). Continuous fluorescence intensity was detected after thrombin was added as a calcium agonist by an automated sampler. Response over baseline was assessed as a relative measure of [Ca^2+]i.

[8] = tested on: MDA-MB-231 cells; assay: RT-qPCR of marker genes; assay type: cell-based, human
Procedure: as §4

IC50 [1]: 0.876 µM
SMILES: CN(C)Cc1c(C(=O)NCCOc2ccc(C(=O)NO)cc2)oc2ccccc12 [PCI-24781]
Ki-67 staining of tumor tissues [2]: inhibited tumor proliferation
tumor growth inhibition ([2]; every other day for four weeks, compared to control group, P < 0.0001): 74.6%
RGS2 IHC staining in tumor tissues ([2]; versus control group): more abundant and more intensely stained
IC50 [3]: 15 µM
expression levels of PMCA1 and PMCA4b ([4]; MDA-MB-231, RT-qPCR): not affected
expression levels of Gαq and PLCβ3 ([4]; MDA-MB-231, Western blot and RT-qPCR): significantly decreased
invasive capacity [5]: significant reduction in the invasive capacity
cell death ([6]; 0.15 μM): ~ 20%
effect on cell survival ([6]; 3 μM): discernible effects on cell survival
amplitude of [Ca^2+]i oscillations [7]: significant decrease in the amplitude
expression of Ca^2+-related pathway markers (SYT1, SYTL2, SYT7, SYT12, TC2N, MMP1, MMP3, PLCβ3) [8]: downregulated
expression of MMP2, MMP15, and MMP16 [8]: significantly inhibited
expression of epithelial markers (α-catenin, γ-catenin) [8]: significant upregulation
mRNA levels of mesenchymal/NE markers (N-cadherin, vimentin, fibronectin, Syn, ASH1, NCAM1) [8]: either inhibited or unaffected
